Measured values from ChEMBL document CHEMBL1138244, “Three-dimensional quantitative structure-activity relationships and activity predictions of human TRPV1 channel antagonists: comparative molecular field analysis and comparative molecular similarity index analysis of cinnamides” (J Med Chem, 2007).

Test: Inhibition of rat human chimera TRPV1 channel expressed in CHO cells
Format: cell-based

SMILES | IC50 [µM] | pIC50
CC(C)(C)c1ccc(/C=C/C(=O)Nc2ccc3c(c2)CCCC3)cc1 | 0.102 | 
O=C(/C=C/c1ccc(C(F)(F)F)nc1N1CCCCC1)Nc1ccc2cccnc2c1 | 0.001 | 8.94
O=C(/C=C/c1ccc([N+](=O)[O-])cc1)Nc1ccc2c(c1)OCCO2 | 0.583 | 6.23
O=C(/C=C/c1ccc(C(F)(F)F)nc1N1CCOCC1)Nc1ccc2cccnc2c1 | 0.002 | 8.78
O=C(/C=C/c1ccc(O)cc1)Nc1ccc2c(c1)OCCO2 | > 40 | 4.4
CCCCc1ccc(/C=C/C(=O)Nc2ccc3c(c2)OCCO3)cc1 | 0.312 | 6.51
CC(C)(C)c1ccc(C(=CC(=O)Nc2ccc3c(c2)OCCO3)c2ccc(C(C)(C)C)cc2)cc1 | 2.51 | 5.6
CC(C)(C)c1ccc(/C=C/C(=O)Nc2ccc3c(c2)OCC(=O)N3)cc1 | 0.391 | 
CC(C)(C)c1ccc(/C(=C/C(=O)Nc2ccc3c(c2)OCCO3)c2ccncc2)cc1 | 0.119 | 6.92
CC(C)Cc1ccc(/C=C/C(=O)Nc2ccc3c(c2)OCCO3)cc1 | 1.01 | 5.99
Cc1nc(C(F)(F)F)ccc1/C=C/C(=O)Nc1ccc2c(c1)OCCO2 | 1.11 | 5.95
Cc1ccc(/C=C/C(=O)Nc2ccc3c(c2)OCCO3)cc1 | 0.293 | 6.53
CCc1ccc(/C=C/C(=O)Nc2ccc3c(c2)OCCO3)cc1 | 0.247 | 6.61
O=C(/C=C/c1ccc(Cl)cc1)Nc1ccc2c(c1)OCCO2 | 0.216 | 6.67
CC(C)(C)c1ccc(CCC(=O)Nc2ccc3c(c2)OCCO3)cc1 | 0.226 | 6.65
CC(C)C/C(=C\C(=O)Nc1ccc2c(c1)OCCO2)c1ccc(C(C)(C)C)cc1 | 0.041 | 7.38
O=C(/C=C/c1ccc(F)cc1)Nc1ccc2c(c1)OCCO2 | 1.47 | 5.83
O=C(/C=C/c1ccc(Br)cc1)Nc1ccc2c(c1)OCCO2 | 0.339 | 6.47
CC(C)(C)c1ccc(/C=C/C(=O)Oc2ccc3c(c2)OCCO3)cc1 | 0.868 | 6.06
CC(C)(C)c1cccc(/C=C/C(=O)Nc2ccc3c(c2)OCCO3)c1 | 0.548 | 6.26
O=C(/C=C/c1ccccc1)Nc1ccc2c(c1)OCCO2 | 5.1 | 5.29
CC(C)(C)c1ccc(/C(=C/C(=O)Nc2ccc3c(c2)OCCO3)c2ccccc2)cc1 | 0.048 | 7.32

SMILES | IC50 [µM] | pIC50
CC/C(=C\c1ccc(C(C)(C)C)cc1)C(=O)Nc1ccc2c(c1)OCCO2 | 0.501 | 6.3
CC(C)(C)c1ccc(/C=C/C(=O)Nc2ccc3c(c2)OCCO3)nc1 | 1.06 | 5.97
COc1ccccc1NC(=O)/C=C/c1ccc(C(C)(C)C)cc1 | 0.859 | 6.07
CC(C)(C)c1ccc(/C(=C/C(=O)Nc2ccc3c(c2)OCCO3)c2cccnc2)cc1 | 0.144 | 6.84
O=C(/C=C/c1ccc(C(F)(F)F)nc1)Nc1ccc2c(c1)OCCO2 | 1.07 | 5.97
COc1cccc(NC(=O)/C=C/c2ccc(C(C)(C)C)cc2)c1 | 0.057 | 7.24
CC(C)(C)c1ccc(/C=C/C(=O)Nc2ccc3cccnc3c2)cc1 | 0.003 | 
COc1ccc(NC(=O)/C=C/c2ccc(C(C)(C)C)cc2)cc1 | 0.166 | 6.78
COc1ccc(/C=C/C(=O)Nc2ccc3c(c2)OCCO3)cc1 | 1.87 | 5.73
CC(C)(C)c1ccc(/C=C/C(=O)Nc2ccc3c(c2)NCCC3)cc1 | 0.055 | 
CC(C)(C)c1ccc(/C=C/C(=O)Nc2ccc3c(c2)OCCO3)c(Br)c1 | 0.157 | 6.8
CC(C)(C)c1ccc(/C(=C/C(=O)Nc2ccc3c(c2)OCCO3)Cc2ccccc2)cc1 | 0.021 | 7.69
COc1ccc(NC(=O)/C=C/c2ccc(C(C)(C)C)cc2)cc1OC | 0.23 | 6.64
CCOC(=O)c1cc(C(C)(C)C)ccc1/C=C/C(=O)Nc1ccc2c(c1)OCCO2 | 0.026 | 7.58
CC(C)(C)c1ccc(/C=C/C(=O)Nc2ccc3c(c2)O[C@@H](CO)CO3)cc1 | 0.254 | 6.59
CC(C)(C)c1ccc(/C=C/C(=O)Nc2ccc3c(c2)O[C@H](CO)CO3)cc1 | 0.216 | 6.66
COc1cccc(/C(=C/C(=O)Nc2ccc3c(c2)OCCO3)c2ccc(C(C)(C)C)cc2)c1 | 0.155 | 6.81
CC(C)(C)c1ccc(/C=C\C(=O)Nc2ccc3c(c2)OCCO3)cc1 | 1.9 | 5.72
CN(C)c1ccc(/C=C/C(=O)Nc2ccc3c(c2)OCCO3)cc1 | 1.32 | 5.88
O=C(/C=C/c1cccc(Br)c1)Nc1ccc2c(c1)OCCO2 | 0.404 | 6.39
O=C(/C=C/c1ccc(F)c(F)c1)Nc1ccc2c(c1)OCCO2 | 1.31 | 5.88
CC(C)(C)c1ccc(/C(I)=C/C(=O)Nc2ccc3c(c2)OCCO3)cc1 | 0.343 | 6.46

SMILES | IC50 [µM] | pIC50
O=C(/C=C/c1ccc(Cl)cc1)Nc1cccc(Cl)c1 | 0.993 | 6
CC(C)(C)c1ccc(/C=C/C(=O)Nc2ccc3c(c2)OC[C@H](CO)O3)cc1 | 0.024 | 7.62
O=C(/C=C/c1ccc(C(F)(F)F)cc1C(F)(F)F)Nc1ccc2c(c1)OCCO2 | 0.451 | 6.35
COC[C@@H]1COc2cc(NC(=O)/C=C/c3ccc(C(C)(C)C)cc3)ccc2O1 | 1.02 | 5.99
CC(C)(C)c1ccc(/C=C/C(=O)Nc2ccc3c(c2)OC[C@@H](CNCO)O3)cc1 | 0.69 | 6.16
CCC/C(=C\C(=O)Nc1ccc2c(c1)OCCO2)c1ccc(C(C)(C)C)cc1 | 0.12 | 6.92
CC(C)(C)c1ccc(/C=C/C(=O)Nc2ccc3oc(=O)cnc3c2)cc1 | 0.018 | 
CC(C)(C)c1ccc(/C=C/C(=O)Nc2ccc3cc[nH]c3c2)cc1 | 0.019 | 
CC(C)(C)c1ccc(/C=C/C(=O)Nc2cccc(OCCO)c2)cc1 | 0.859 | 6.07
CC(C)(C)c1ccc(/C=C/C(=O)Nc2ccc3ccc(=O)[nH]c3c2)cc1 | 0.004 | 
COc1ccccc1/C(=C/C(=O)Nc1ccc2c(c1)OCCO2)c1ccc(C(C)(C)C)cc1 | 0.153 | 6.82
COc1ccc(/C(=C/C(=O)Nc2ccc3c(c2)OCCO3)c2ccc(C(C)(C)C)cc2)cc1 | 0.046 | 7.34
CC(C)(C)c1ccc(/C=C/C(=O)Nc2ccc3c(c2)OC[C@@H](COCC2CC2)O3)cc1 | 0.329 | 6.48
CC(C)(C)c1ccc(/C=C/C(=S)Nc2ccc3c(c2)OCCO3)cc1 | 0.392 | 6.41
CC(C)(C)c1ccc(/C=C/C(=O)Nc2ccc3c(c2)OCCO3)c(C2CCCC2)c1 | 0.006 | 8.21
CCC(C)/C(=C\c1ccc(C(C)(C)C)cc1)C(=O)Nc1ccc2c(c1)OCCO2 (stereo unspecified) | 0.545 | 6.26
COc1cc(/C=C/C(=O)Nc2ccc3c(c2)OCCO3)cc(OC)c1OC | > 40 | 4.4
CN(C(=O)/C=C/c1ccc(C(C)(C)C)cc1)c1ccc2c(c1)OCCO2 | 19.4 | 4.71
CC(C)(C)c1ccc(/C(=C\C(=O)Nc2ccc3c(c2)OCCO3)c2cccc(N)c2)cc1 | 0.331 | 6.48
CC(C)(C)c1ccc(/C=C/CNc2ccc3c(c2)OCCO3)cc1 | > 40 | 4.4
C/C(=C\C(=O)Nc1ccc2c(c1)OCCO2)c1ccc(C(C)(C)C)cc1 | 0.082 | 7.09
CC(C)(C)c1ccc(/C=C/C(=O)Nc2ccc3c(c2)NCCO3)cc1 | 0.173 | 

SMILES | IC50 [µM] | pIC50
CC(C)(C)c1ccc(/C=C/C(=O)Nc2ccc3c(c2)OCCO3)cn1 | 0.183 | 6.74
O=C(/C=C/c1ccc(-c2ccccc2)cc1)Nc1ccc2c(c1)OCCO2 | > 40 | 4.4
O=C(/C=C/c1ccc(C(F)(F)F)cc1)Nc1ccc2c(c1)OCCO2 | 0.12 | 6.92
CC(C)(C)c1ccc(/C=C/C(=O)Nc2ccc3c(c2)OCCN3)cc1 | 0.026 | 
CC(C)(C)c1ccc(/C(=C/C(=O)Nc2ccc3c(c2)OCCO3)c2ccc(C(F)(F)F)cc2)cc1 | 0.047 | 7.33
CC(C)(C)c1ccc(/C=C(/C(=O)Nc2ccc3c(c2)OCCO3)c2ccccc2)cc1 | 10.7 | 4.97
C/C(=C\c1ccc(C(C)(C)C)cc1)C(=O)Nc1ccc2c(c1)OCCO2 | 0.164 | 6.78
CCOC(=O)CC/C(=C\C(=O)Nc1ccc2c(c1)OCCO2)c1ccc(C(C)(C)C)cc1 | 0.056 | 7.25
CC(C)(C)c1ccc(/C=C/C(=O)Nc2cccc(C(N)=O)c2)cc1 | 0.033 | 7.48
O=C(/C=C/c1ccc(Cl)c(Cl)c1)Nc1ccc2c(c1)OCCO2 | 0.449 | 6.35
O=C(/C=C/c1ccc(C(F)(F)F)cc1Br)Nc1ccc2c(c1)OCCO2 | 0.453 | 6.34
CC(C)(C)c1ccc(/C=C(/C(=O)Nc2ccc3c(c2)OCCO3)C2CCCC2)cc1 | 15.4 | 4.81
Cc1ccccc1/C(=C/C(=O)Nc1ccc2c(c1)OCCO2)c1ccc(C(C)(C)C)cc1 | 0.279 | 6.55
CC(C)(C)c1ccc(C(=O)CC(=O)Nc2ccc3c(c2)OCCO3)cc1 | 0.582 | 6.23
CN(C)C[C@@H]1COc2cc(NC(=O)/C=C/c3ccc(C(C)(C)C)cc3)ccc2O1 | 0.665 | 6.18
CC(C)(C)c1ccc(/C=C/C(=O)Nc2ccccc2)cc1 | 0.269 | 6.57
CC(C)c1ccc(/C=C/C(=O)Nc2ccc3c(c2)OCCO3)cc1 | 0.098 | 7.01
CC(C)(C)c1ccc(/C=C/C(=O)Nc2ccc3c(c2)OC[C@@H](CN)O3)cc1 | 1.27 | 5.9
CC(C)(C)c1ccc(/C=C/C(=O)Nc2ccc3c(c2)OCCO3)cc1.Cl | 0.55 | 6.26
